Laboratory results from ChEMBL document CHEMBL4371025, “Discovery and evaluation of novel FAAH inhibitors in neuropathic pain model” (Bioorg Med Chem Lett, 2019).

Legend:
[1] = Drug level in plasma of Sprague-Dawley rat at 10 mg/kg, po administered as single dose via gavage measured at 24 hrs by LC-MS/MS analysis; assay type: ADME, organism-based
[2] = Drug level in plasma of Sprague-Dawley rat at 10 mg/kg, po administered as single dose via gavage measured at 32 hrs by LC-MS/MS analysis; assay type: ADME, organism-based
[3] = Elimination half life in Sprague-Dawley rat at 3 mg/kg, iv or 10 mg/kg, po administered as single dose via gavage by LC-MS/MS analysis; assay type: ADME, organism-based; settings: in vivo, read-out: beta t1/2 (converted)
[4] = Drug level in plasma of Sprague-Dawley rat at 10 mg/kg, po administered as single dose via gavage measured at 8 hrs by LC-MS/MS analysis; assay type: ADME, organism-based
[5] = Intrinsic metabolic stability in human liver microsomes assessed as metabolic turnover rate per mg protein at 1 uM preincubated for 5 mins followed by NADPH cofactor addition and measured after 30 mins by LC-MS/MS analysis; assay type: ADME, Microsome; settings: 0.5 h
[6] = Elimination half life in Sprague-Dawley rat at 3 mg/kg, iv administered as single dose by LC-MS/MS analysis; assay type: ADME, organism-based; settings: in vivo, read-out: beta t1/2 (converted)
[7] = Ratio of drug level in brain to plasma in Sprague-Dawley rat at 3 mg/kg, iv or 10 mg/kg, po administered as single dose via gavage by LC-MS/MS analysis; assay type: ADME, organism-based; settings: brain and plasma, read-out: BPR
[8] = Drug level in brain of Sprague-Dawley rat at 10 mg/kg, po administered as single dose via gavage measured at 8 hrs by LC-MS/MS analysis; assay type: ADME, organism-based; settings: read-out: Drug uptake
[9] = Clearance in Sprague-Dawley rat at 3 mg/kg, iv or 10 mg/kg, po administered as single dose via gavage by LC-MS/MS analysis; assay type: ADME, organism-based; settings: in vivo
[10] = test system: CYP3A4; experiment: Selectivity ratio of IC50 for CYP3A4 in human liver microsomes using midazolam as substrate to IC50 for human transmembrane domain deficient FFAH expressed in Escherichia coli; assay type: toxicity; settings: probe midazolam, read-out: Ratio IC50
[11] = test system: CYP3A4; experiment: Selectivity ratio of IC50 for CYP3A4 in human liver microsomes using testosterone as substrate to IC50 for human transmembrane domain deficient FFAH expressed in Escherichia coli; assay type: toxicity; settings: probe testosterone, read-out: Ratio IC50
[12] = Ratio of AUC (0 to 48 hrs) in liver to plasma of Sprague-Dawley rat at 10 mg/kg, po administered as single dose via gavage by LC-MS/MS analysis; assay type: ADME, organism-based; settings: liver and plasma, read-out: Ratio AUC
[13] = test system: CYP3A4; experiment: Selectivity ratio of IC50 for CYP3A4 in human liver microsomes using testosterone as substrate to IC50 for rat FFAH expressed in Escherichia coli; assay type: toxicity; settings: probe testosterone, read-out: Ratio IC50
[14] = Volume of distribution at steady state in Sprague-Dawley rat at 3 mg/kg, iv or 10 mg/kg, po administered as single dose via gavage by LC-MS/MS analysis; assay type: ADME, organism-based; settings: in vivo, read-out: Vdss
[15] = Clearance in Sprague-Dawley rat at 3 mg/kg, iv administered as single dose by LC-MS/MS analysis; assay type: ADME, organism-based; settings: in vivo
[16] = Selectivity ratio of IC50 for MAGL (unknown origin) to IC50 for rat FFAH expressed in Escherichia coli; assay type: toxicity
[17] = test system: CYP1A2; experiment: Selectivity ratio of IC50 for CYP1A2 in human liver microsomes to IC50 for rat FFAH expressed in Escherichia coli; assay type: toxicity; settings: read-out: Ratio IC50
[18] = test system: CYP2D6; experiment: Selectivity ratio of IC50 for CYP2D6 in human liver microsomes to IC50 for human transmembrane domain deficient FFAH expressed in Escherichia coli; assay type: toxicity; settings: read-out: Ratio IC50
[19] = test system: CYP3A4; experiment: Selectivity ratio of IC50 for CYP3A4 in human liver microsomes using midazolam as substrate to IC50 for rat FFAH expressed in Escherichia coli; assay type: toxicity; settings: probe midazolam, read-out: Ratio IC50
[20] = biological target: Cytochrome P450 2D6 (Homo sapiens, UniProt P10635); experiment: Inhibition of CYP2D6 in human liver microsomes using dextromethorphan as substrate preincubated for 5 mins followed by NADPH cofactor addition and measured after 10 mins by LC-MS/MS analysis; assay type: ADME
Sequence of Cytochrome P450 2D6 (P10635 whole entry): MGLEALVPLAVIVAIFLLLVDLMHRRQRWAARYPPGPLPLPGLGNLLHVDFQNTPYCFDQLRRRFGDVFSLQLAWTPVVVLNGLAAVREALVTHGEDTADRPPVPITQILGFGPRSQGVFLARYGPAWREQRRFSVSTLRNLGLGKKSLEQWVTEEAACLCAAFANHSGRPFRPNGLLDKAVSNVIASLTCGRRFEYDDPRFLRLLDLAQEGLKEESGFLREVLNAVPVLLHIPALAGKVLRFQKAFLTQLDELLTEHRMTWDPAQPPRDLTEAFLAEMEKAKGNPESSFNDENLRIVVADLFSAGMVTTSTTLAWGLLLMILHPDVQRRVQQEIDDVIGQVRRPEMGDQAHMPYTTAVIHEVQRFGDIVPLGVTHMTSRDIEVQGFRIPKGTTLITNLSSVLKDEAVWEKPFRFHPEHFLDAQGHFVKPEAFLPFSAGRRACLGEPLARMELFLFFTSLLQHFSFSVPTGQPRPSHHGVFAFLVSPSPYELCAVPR

[21] = biological target: T1, Cytochrome P450 3A4 (Homo sapiens, UniProt P08684); experiment: Inhibition of CYP3A4 in human liver microsomes using testosterone as substrate preincubated for 5 mins followed by NADPH cofactor addition and measured after 10 mins by LC-MS/MS analysis; assay type: ADME
T1 sequence (P08684 whole entry): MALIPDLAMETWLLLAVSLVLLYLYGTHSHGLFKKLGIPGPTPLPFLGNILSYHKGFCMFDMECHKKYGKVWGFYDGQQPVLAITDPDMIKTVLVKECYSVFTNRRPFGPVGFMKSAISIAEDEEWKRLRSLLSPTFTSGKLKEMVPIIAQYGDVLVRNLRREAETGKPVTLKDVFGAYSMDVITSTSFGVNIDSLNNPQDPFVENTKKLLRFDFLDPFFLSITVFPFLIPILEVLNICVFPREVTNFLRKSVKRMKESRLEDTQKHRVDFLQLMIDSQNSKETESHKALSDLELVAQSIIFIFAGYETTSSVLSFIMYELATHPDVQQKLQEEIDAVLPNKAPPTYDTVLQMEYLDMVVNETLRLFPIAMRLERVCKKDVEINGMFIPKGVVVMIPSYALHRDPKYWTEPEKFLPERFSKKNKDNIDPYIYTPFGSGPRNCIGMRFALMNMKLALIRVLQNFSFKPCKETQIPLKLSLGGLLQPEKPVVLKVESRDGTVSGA

[22] = test system: CYP2C19; experiment: Selectivity ratio of IC50 for CYP2C19 in human liver microsomes to IC50 for rat FFAH expressed in Escherichia coli; assay type: toxicity; settings: read-out: Ratio IC50
[23] = Drug level in plasma of Sprague-Dawley rat at 10 mg/kg, po administered as single dose via gavage measured at 4 hrs by LC-MS/MS analysis; assay type: ADME, organism-based
[24] = Intrinsic metabolic stability in rat liver microsomes assessed as metabolic turnover over per mg protein at 1 uM preincubated for 5 mins followed by NADPH cofactor addition and measured after 30 mins by LC-MS/MS analysis; assay type: ADME, Microsome; settings: 0.5 h
[25] = test system: CYP2C19; experiment: Selectivity ratio of IC50 for CYP2C19 in human liver microsomes to IC50 for human transmembrane domain deficient FFAH expressed in Escherichia coli; assay type: toxicity; settings: read-out: Ratio IC50
[26] = test system: CYP2C9; experiment: Selectivity ratio of IC50 for CYP2C9 in human liver microsomes to IC50 for human transmembrane domain deficient FFAH expressed in Escherichia coli; assay type: toxicity; settings: read-out: Ratio IC50
[27] = Drug level in liver of Sprague-Dawley rat at 10 mg/kg, po administered as single dose via gavage measured at 24 hrs by LC-MS/MS analysis; assay type: ADME, organism-based; settings: read-out: Drug uptake
[28] = biological target: T1, Cytochrome P450 3A4; experiment: Inhibition of CYP3A4 in human liver microsomes using midazolam as substrate preincubated for 5 mins followed by NADPH cofactor addition and measured after 10 mins by LC-MS/MS analysis; assay type: ADME
[29] = biological target: T2, Fatty-acid amide hydrolase 1 (Homo sapiens, UniProt O00519); experiment: Inhibition of human transmembrane domain deficient FFAH expressed in Escherichia coli using AAMCA as substrate incubated for 1 min measured for 50 mins by fluorescence assay
T2 sequence (O00519 whole entry): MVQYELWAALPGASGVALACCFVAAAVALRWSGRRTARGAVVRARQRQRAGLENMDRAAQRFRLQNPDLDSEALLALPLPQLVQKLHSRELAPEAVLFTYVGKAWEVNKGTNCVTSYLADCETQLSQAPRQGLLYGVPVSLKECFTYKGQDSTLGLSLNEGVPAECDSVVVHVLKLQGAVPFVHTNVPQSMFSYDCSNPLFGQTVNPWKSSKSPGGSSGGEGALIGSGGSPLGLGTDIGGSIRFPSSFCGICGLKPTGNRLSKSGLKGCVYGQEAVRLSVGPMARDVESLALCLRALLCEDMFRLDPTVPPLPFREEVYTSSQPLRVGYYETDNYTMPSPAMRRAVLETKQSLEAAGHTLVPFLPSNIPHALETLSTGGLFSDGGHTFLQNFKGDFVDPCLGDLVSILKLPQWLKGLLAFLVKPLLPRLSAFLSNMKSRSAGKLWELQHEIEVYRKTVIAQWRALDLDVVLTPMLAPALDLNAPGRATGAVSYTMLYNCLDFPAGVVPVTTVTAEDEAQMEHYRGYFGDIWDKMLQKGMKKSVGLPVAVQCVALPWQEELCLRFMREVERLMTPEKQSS

Cc1cc(C(=O)N[C@H]2CC/C(=C\c3cccc(Oc4ccc(C(F)(F)F)cn4)c3)CC2)cnc1N (stereo not drawn)
concentration at 24 h [1]: 3.3 µM | concentration at 32 h [2]: 3 µM | half-life [3]: 17 h | concentration at 8 h [4]: 5.3 µM | Drug metabolism [5]: 0.06 to 0.07 nmol/min/mg | half-life [6]: 17 h | Kp [7]: 0.5 | concentration at 8 h [8]: 3.2 µM | clearance [9]: 0.8 mL/min/kg | selectivity ratio [10]: > 5000 | selectivity ratio [11]: > 5000 | Kp [12]: 6.9 | selectivity ratio [13]: > 5000 | Vd [14]: 1.2 L/kg | clearance [15]: 0.8 mL/min/kg | Ratio IC50 [16]: > 10000 | selectivity ratio [17]: > 5000 | selectivity ratio [18]: > 5000 | selectivity ratio [19]: > 5000 | IC50 [20]: > 12500 nM | IC50 [21]: > 12500 nM | selectivity ratio [22]: > 5000 | concentration at 4 h [23]: 4.8 µM | Drug metabolism [24]: 0.04 to 0.09 nmol/min/mg | selectivity ratio [25]: > 5000 | selectivity ratio [26]: > 5000 | concentration at 24 h [27]: 22 µM | IC50 [28]: > 12500 nM | IC50 [29]: 1.3 nM

Nc1ncc(C(=O)N[C@H]2CC/C(=C\c3cccc(Oc4ccc(C(F)(F)F)cn4)c3)CC2)cn1 (stereo not drawn)
concentration at 24 h [1]: 7 µM | concentration at 32 h [2]: 2.7 µM | half-life [3]: 17.2 h | concentration at 8 h [4]: 7.3 µM | Drug metabolism [5]: ≤ 0.04 nmol/min/mg | half-life [6]: 17.2 h | Kp [7]: 0.8 | concentration at 8 h [8]: 7.2 µM | clearance [9]: 0.6 mL/min/kg | selectivity ratio [10]: > 5000 | selectivity ratio [11]: > 5000 | Kp [12]: 4.3 | selectivity ratio [13]: > 5000 | Vd [14]: 0.8 L/kg | clearance [15]: 0.6 mL/min/kg | Ratio IC50 [16]: > 10000 | selectivity ratio [17]: > 5000 | selectivity ratio [18]: > 5000 | selectivity ratio [19]: > 5000 | IC50 [20]: > 12500 nM | IC50 [21]: > 12500 nM | selectivity ratio [22]: > 5000 | concentration at 4 h [23]: 7.8 µM | Drug metabolism [24]: ≤ 0.04 nmol/min/mg | selectivity ratio [25]: > 5000 | selectivity ratio [26]: > 5000 | concentration at 24 h [27]: 23 µM | IC50 [28]: > 12500 nM | IC50 [29]: 0.6 nM

O=C(N[C@H]1CC/C(=C\c2cccc(Oc3ccc(C(F)(F)F)cn3)c2)CC1)c1cccnc1 (stereo not drawn)
concentration at 24 h [1]: 0.5 µM | half-life [3]: 5.1 h | concentration at 8 h [4]: 3 µM | Drug metabolism [5]: 0.04 nmol/min/mg | half-life [6]: 5.1 h | Kp [7]: 1.5 | concentration at 8 h [8]: 4.7 µM | clearance [9]: 2.4 mL/min/kg | Kp [12]: 10.5 | Vd [14]: 0.9 L/kg | clearance [15]: 2.4 mL/min/kg | IC50 [20]: > 10000 nM | IC50 [21]: 400 nM | concentration at 4 h [23]: 3.3 µM | Drug metabolism [24]: < 0.04 nmol/min/mg | concentration at 24 h [27]: 7.7 µM | IC50 [28]: 2400 nM | IC50 [29]: 0.7 nM

Nc1ccc(C(=O)N[C@H]2CC/C(=C\c3cccc(Oc4ccc(C(F)(F)F)cn4)c3)CC2)cn1 (stereo not drawn)
concentration at 24 h [1]: 4.4 µM | concentration at 32 h [2]: 2.2 µM | half-life [3]: 9.2 h | concentration at 8 h [4]: 8.2 µM | half-life [6]: 9.2 h | Kp [7]: 0.6 | concentration at 8 h [8]: 5.2 µM | clearance [9]: 0.7 mL/min/kg | Kp [12]: 9.2 | Vd [14]: 0.6 L/kg | clearance [15]: 0.7 mL/min/kg | IC50 [20]: > 12500 nM | IC50 [21]: > 12500 nM | concentration at 4 h [23]: 8.6 µM | concentration at 24 h [27]: 33 µM | IC50 [28]: > 12500 nM | IC50 [29]: 1.2 nM
